Tested on: Collagen-immunized DBA/I mice
Assay: collagen-induced arthritis (CIA), frequency and severity of RA symptoms
Format: in vivo
Protocol: The anti-RA efficacy of SP1018R (200 μl of F127 and L61 in a ratio of 8:1 at a concentration of 2.25% ) was compared to that of MTX that was given at a human equivalent dose (0.1 mg/kg i.v.), both drugs were given on day 30 and day 37 after the first immunization with collagen. For induction of severe CIA, mice were primed with 500 μl pristane and immunized at day 14 and 21 by administration of 100 μg colagen type II in Freund's complete adjuvant. The control (placebo) and the treated animals were evaluated for RA severity. RA was graded semi-quantitatively on a scale of 0-4 for each paw: 0=no changes; 0.5=significant swelling and redness on one digit; 1=swelling and erythema of 2 digits; 2=mild swelling and erythema of the limb or swelling of more than 2 digits; 3=marked swelling and erythema of the limb; and 4=maximal swelling and redness of the limb and later, ankylosis. […] Rev. Immunol.
The data shown below represent the maximal frequency (%) of animals having developed symptoms of RA and the frequency of animals still having the symptoms of RA at the end of the study. All Pluronics used in all examples were purchased from BASF Co.
Frequency of RA development at various time points during the course of RA development

[1] = Study NG256, given twice (2X; day 30 and day 37)

`CN(Cc1cnc2nc(N)nc(N)c2n1)c1ccc(C(=O)N[C@@H](CCC(=O)O)C(=O)O)cc1` [MTX, methotrexate] was tested, and the “RA severity, clinical disease symptoms (scale of 0-4 for each paw)” value (SP1018R 200 μl, MTX 0.1 mg/kg i.v., day 30 and day 37 after first immunization) was “slight therapeutic effect”, the “frequency of animals still having the symptoms of RA at the end of the study” value [1] was 100% and the “maximal frequency (%) of animals having developed symptoms of RA” value [1] was “MTX—100%”.
